Source: PubChem BioAssay (NCI)
Several values for one entry are separate records, joined by “and”; a condition that tells them apart may be missing. Identical values can stand only once.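 Test compounds were applied to cells in 96-well plates for 48 hours at 5 doses. GI50 is the concentration that inhibits growth by half. TGI denotes the concentration required for complete inhibition of growth.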

These compounds were tested on NCI-H522 lung (assay: growth of human tumour cells (NCI), 48 h).

Cc1nc2c(nc1C)C(=O)c1ccccc1C2=O was tested. Which TGI did it give?
Its TGI is 10.7 µM.

O=[N+]([O-])c1cnc(Sc2ccncn2)s1 was tested. Which GI50 did it give?
The GI50 was 1.62 µM.

What about the TGI of the same compound?
The TGI was 3.34 µM.

For O=C(Nc1ccc(I)cc1)c1cc([N+](=O)[O-])ccc1O, which GI50 is on record?
The GI50 was 2.92 µM.

And the TGI?
The TGI was 15.9 µM.

With Cc1cc(=O)n2[nH]c(-c3ccc(C(C)(C)C)cc3)cc2n1 as the compound, how does the GI50 read?
Its GI50 is 3.42 µM.

And the TGI?
The TGI was 43 µM.

O=C(N/C(=C\c1cc(Cl)ccc1Cl)c1nc2[nH]c(=S)[nH]c(=O)c2[nH]1)c1ccccc1 was tested. Which TGI did it give?
Its TGI is > 100 µM.

Which results are given for O=C(CN1CCN(c2cc3c(cc2F)c(=O)c(C(=O)N/N=C/c2ccccc2O)cn3C2CC2)CC1)N/N=C\c1ccccc1O?
GI50: 0.405 µM; TGI: > 100 µM

With C=C(CNCCO)[C@@H]1CC[C@]2(CO)CC[C@]3(C)[C@H](CC[C@@H]4[C@@]5(C)CCC(N)C(C)(C)[C@@H]5CC[C@]43C)[C@@H]12 (some centres undefined) as the compound, how does the GI50 read?
Its GI50 is 1.93 µM.

What about the TGI of the same compound?
Its TGI is 3.7 µM.

Nc1cc2nc3ccccc3sc-2cc1=O was tested. Which GI50 did it give?
The GI50 was 2.46 µM.

And the TGI?
The TGI was 5.87 µM.

For CN(CC(=O)O)S(=O)(=O)c1ccc2ccccc2c1, which TGI is on record?
The TGI was > 100 µM.

Which TGI does the source give for CC1=C(C(=O)Nc2ccccc2C)C(c2ccco2)C(C(=O)Nc2ccccc2C)=C(C)N1C here?
Its TGI is > 100 µM.

Which results are given for COc1cc2nc(-c3ccc(C(F)(F)F)cc3)cc(OCCCN3CCC(O)CC3)c2cc1OC?
GI50: 4.15 µM; TGI: 19.3 µM

For CC(=O)OC(C)C(=O)C1c2cccc(O)c2C(=O)c2c(O)cc(C)cc21 (centres undefined), which TGI is on record?
The TGI was 3.02 µM.

With O=C1NNC(=O)c2ccccc2SSc2ccccc2C(=O)NNC(=O)c2ccccc2SSc2ccccc21 as the compound, how does the GI50 read?
Its GI50 is 3.43 µM.

What about the TGI of the same compound?
Its TGI is 50 µM and 14.5 µM.

With NC(CCc1nc(-c2ccc(Cl)cc2)cs1)C(=O)O (centres undefined) as the compound, how does the TGI read?
The TGI was > 100 µM.

Which results are given for COc1cc(C(=O)/C=C/c2sc(Cl)nc2Cl)cc(OC)c1OC?
GI50: 1.68 µM; TGI: 3.96 µM

COc1cc2nc(C)nc(N[C@H](C)c3cc(N)cc(C(F)(F)F)c3)c2cc1O[C@H]1CCOC1 was tested. Which GI50 did it give?
The GI50 was 12.8 µM.

And the TGI?
The TGI was 29.3 µM.

O=C1c2ccccc2C(=O)c2sc(Nc3cccc(Cl)c3)nc21 was tested. Which TGI did it give?
Its TGI is 3.09 µM.

What does the source list for CC1=C(C(=O)Nc2ccc(F)c(Cl)c2)C(c2ccc(Cl)cc2)NC(=O)N1 (centres undefined)?
GI50: 17.8 µM; TGI: 34.9 µM

How did the GI50 turn out when Fc1ccc(Nc2ncnc3ccc(-c4cnc5[nH]ccc5c4)cc23)cc1Cl was run?
Its GI50 is 12.6 µM.

What about the TGI of the same compound?
The TGI was 69.1 µM.

For CN(C)CCCNC1=C(Cl)C(=O)c2ccccc2C1=O, which GI50 is on record?
The GI50 was 2.03 µM.

And the TGI?
Its TGI is 3.83 µM.

How did the GI50 turn out when O=C(Nc1ccc(F)cc1F)c1cc(I)ccc1O was run?
The GI50 was 2.73 µM.

What about the TGI of the same compound?
Its TGI is 14.1 µM.

What follows are compounds tested on SW-620 colon (assay: growth of human tumour cells (NCI), 48 h).

Which results are given for C[C@@H](CS(C)(=O)=O)Nc1ncc2cc(Oc3ccc(F)cc3F)c(=O)n(C)c2n1?
GI50: > 25 µM; TGI: > 25 µM

How did the GI50 turn out when COc1cc2c(c(OC)c1O)C(=O)C(OC)C(c1ccc(O)c(O)c1)O2 (centres undefined) was run?
Its GI50 is 0.234 µM.

What about the TGI of the same compound?
The TGI was > 100 µM.

Cn1ccnc1C(=O)/C=C/c1ccc(CC(=O)Nc2ccc(Br)cc2)cc1 was tested. Which GI50 did it give?
Its GI50 is 4.15 µM.

What about the TGI of the same compound?
Its TGI is 13.4 µM.

Which GI50 does the source give for CCOC(=O)Nc1nc2ccc(OCC)cc2s1 here?
The GI50 was 4.25 µM.

What about the TGI of the same compound?
Its TGI is > 100 µM.

With NS(=O)(=O)c1ccccc1C(=O)N/N=C(\c1nc2ccc([N+](=O)[O-])cc2[nH]c1=O)C(O)c1ccc([N+](=O)[O-])cc1 (centres undefined) as the compound, how does the TGI read?
The TGI was > 100 µM.

For N#CC(C#N)=c1ccc(=C2NCC3CCCN23)cc1 (centres undefined), which TGI is on record?
The TGI was > 100 µM.

How did the GI50 turn out when CC(C)c1ccc(C(C)C(=O)N(CC2=C(C(C)c3ccccn3)c3ccccc3C2)C(C)C)cc1 (centres undefined) was run?
Its GI50 is 3.18 µM.

And the TGI?
The TGI was 15.8 µM.

With Cc1nc2c(nc1C)C(=O)c1ccccc1C2=O as the compound, how does the TGI read?
The TGI was 10.1 µM.

O=[N+]([O-])c1cnc(Sc2ccncn2)s1 was tested. Which GI50 did it give?
Its GI50 is 1.66 µM.

And the TGI?
The TGI was 3.29 µM.

What does the source list for O=C(Nc1ccc(I)cc1)c1cc([N+](=O)[O-])ccc1O?
GI50: 15.5 µM; TGI: 54.5 µM

For Cc1cc(=O)n2[nH]c(-c3ccc(C(C)(C)C)cc3)cc2n1, which GI50 is on record?
The GI50 was 4.4 µM.

And the TGI?
The TGI was > 100 µM.

For O=C(N/C(=C\c1cc(Cl)ccc1Cl)c1nc2[nH]c(=S)[nH]c(=O)c2[nH]1)c1ccccc1, which TGI is on record?
Its TGI is 36.5 µM.

What does the source list for O=C(CN1CCN(c2cc3c(cc2F)c(=O)c(C(=O)N/N=C/c2ccccc2O)cn3C2CC2)CC1)N/N=C\c1ccccc1O?
GI50: 0.475 µM; TGI: > 100 µM

What does the source list for C=C(CNCCO)[C@@H]1CC[C@]2(CO)CC[C@]3(C)[C@H](CC[C@@H]4[C@@]5(C)CCC(N)C(C)(C)[C@@H]5CC[C@]43C)[C@@H]12 (some centres undefined)?
GI50: 1.89 µM; TGI: 3.75 µM
